“And” between values parts separate entries of the source, which are not always exact repeats. Identical values can stand only once. The source made the active and inactive calls.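 Rule for the calls: active = AC50 no more than tenfold above the top dose tested, or full inhibition at every dose with a flat fit (cut at about 19 µM in these data); inconclusive = flat curve fit with inhibition between 30% and 70%, or poor fit; inactive = AC50 more than tenfold above the top dose tested.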

The assay relates to HMLE_sh_eGFP viability, CellTiter-Glo luminescence, 72 h. Kind of assay: viability loss of HMLE_sh_eGFP cells – cell-based, luminescence, counter-screen for HMLE_sh_ECad selective toxicity project, dose response (AID 463074;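 note: counterscreen control line to flag general toxicity for the HMLE_sh_ECad screen; potency for loss of viability as luminescence drops below DMSO wells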). (A counterscreen serves to expose hits that act by an unwanted route or on another target.)
Turning to `O=C(c1ccc(CSc2ccccc2)cc1)N1CCN(c2ccccc2)CC1`, the AC50 (in general, the concentration at which the activity in the assay is half-maximal) is 9.49 µM.

For the molecule `CC(C)N1CCc2c(sc(NC(=O)c3cc(-c4cccs4)nc4ccccc34)c2C(N)=O)C1`, the AC50 is 12.9 µM.

Consider `CCc1c(C2(O)CCCCC2)[nH]c2ccc(C(F)(F)F)cc12`, for which the AC50 is 3.56 µM.

With `CSc1ccc(C2=CC(=O)C[C@H](c3ccc(Cl)cc3)C2)cc1`, the half-maximal activity concentration (AC50) is 9.27 µM.

Consider `Cc1nn(Cc2ccc(C(=O)Nc3nccs3)cc2)c(C)c1Cl`, for which the AC50 was 0.661 µM.

With `CCCCCc1cc(=O)oc2c(C(CCN3CCCCC3)c3ccc4c(c3)OCO4)c(OC)cc(OC)c12` (stereo not drawn), the AC50 was 6.89 µM.

In the case of `CCCC(C)c1nnc(NC(=O)COc2ccc3c(c2)OCO3)s1` (stereo not drawn), the concentration at half-maximal activity (AC50) is 9.04 µM.

`O=[N+]([O-])c1ccc(/C=N/n2cnc3ccccc32)s1`: the half-maximal activity concentration (AC50) was 6.83 µM.

Regarding `O=C(Nc1ccc(Cn2cccn2)cc1)c1ccc(COc2cccc(Br)c2)cc1`, the AC50 was 0.302 µM.

Turning to `CCn1c2ccccc2c2cc(NC(=O)c3cc(OC)cc(OC)c3)ccc21`, the concentration at half-maximal activity (AC50) is 0.258 µM.

Consider `C(=N\Nc1ncnc2sc3c(c12)CCC3)/c1cccs1`, for which the AC50 was 7.4 µM.

On to `O=C(CCC1CCCC1)Nc1ccc(C(=O)NCc2cccnc2)cc1`, for which the half-maximal activity concentration (AC50) was 1.04 µM.

As for `CC[C@@H]1CC=C[C@H]2[C@H]1C(=O)N(Cc1ccccc1)[C@H]2c1ccoc1`, the concentration at half-maximal activity (AC50) is 7.03 µM.

In the case of `CC(C)(C)N(Cc1ccccc1)C(=O)c1cc2ccccc2o1`, the half-maximal activity concentration (AC50) was 0.653 µM.

As to `N#C/C(=C\c1c(F)cccc1Cl)c1nn(-c2ccccc2)c(-n2cccc2)c1C#N`, the half-maximal activity concentration (AC50) was 1.71 µM.

For `c1ccc(CN2CCC(Nc3nc(-c4ccccc4)nc4ccccc34)CC2)cc1`, the AC50 is 6.67 µM.

`CCCCCCCCCCS(=O)(=O)N/N=C/c1ccc([N+](=O)[O-])cc1`: the AC50 was 12.9 µM.

For `COc1ccc2sc(-c3ccc(SC)cc3)c(-c3ccc(O)cc3)c2c1`, the AC50 is 2.42 µM.

On to `CCOC(=O)/C(=N/Nc1ccccc1)c1csc(Nc2ccccc2)n1`, for which the concentration at half-maximal activity (AC50) was 3.69 µM.

Consider `CCCCCCSc1cccc(-c2nc3ccc(C)cn3c2NCc2ccccc2)c1`, for which the concentration at half-maximal activity (AC50) is 3.37 µM.

Take `CC/C(=C(\c1ccccc1)c1ccc(OCCN(C)C)cc1)c1ccccc1`: the AC50 was 6.69 µM and 6.32 µM.

On to `O=C(Cn1ncc(Cl)c(Cl)c1=O)NC(=O)NC1CCCCC1`, for which the half-maximal activity concentration (AC50) is 2.23 µM.

On to `O=C(/C=C/c1ccco1)NCC1OCCc2ccccc21` (stereo not drawn), for which the AC50 was > 19.5 µM (inactive).

As to `CC(NC(=O)c1ccc(N2CCNCC2)c([N+](=O)[O-])c1)C12CC3CC(CC(C3)C1)C2` (stereo not drawn), the AC50 was 6.64 µM.

As to `Cc1ccc(/C=N/NC(=O)CNC(=O)COc2ccccc2)o1`, the AC50 was > 19.5 µM (inactive).

Turning to `O=C(Nc1ccc(Nc2ccccc2)cc1)c1cccc(F)c1`, the concentration at half-maximal activity (AC50) is 17.6 µM.

On to `Cn1cc([N+](=O)[O-])c(C(=O)Nc2ccc(-c3nc4ccccc4o3)cc2)n1`, for which the AC50 is 2.33 µM.

In the case of `COc1cc(/C=C/c2noc(-c3ccccc3O)n2)ccc1OC(C)=O`, the AC50 is > 19.5 µM (inactive).

As for `Cc1nc(SCc2nc3ccc(C(F)(F)F)cc3[nH]2)c2oc3ccccc3c2n1`, the AC50 was 5.23 µM.

For the molecule `CCOC(=O)CSC1=C(C#N)C(c2sccc2C)CC(=O)N1` (stereo not drawn), the AC50 was > 19.5 µM (inactive).

`CN(CC(=O)Nc1ccc(Cl)c(Cl)c1)CC(=O)Nc1ccc2c(c1)OCO2`: the half-maximal activity concentration (AC50) is 17.2 µM.

As to `O=C(Oc1ccc(-c2nc(-c3ccccn3)no2)cc1)c1ccccc1`, the AC50 was 1.63 µM.

Consider `Cc1nn(CCc2nn[nH]n2)c2nc(-c3ccc(C4CCCCC4)cc3)cc(C(F)(F)F)c12`, for which the half-maximal activity concentration (AC50) was 2.7 µM.

As to `O=C(Oc1ccc(Br)cc1C(=O)/C=C/c1ccccc1F)c1ccco1`, the AC50 was 4.19 µM.

Take `Cc1cc(C)cc(-n2c(C)cc(/C=C3\C(=N)N4N=C(CC(C)C)SC4=NC3=O)c2C)c1`: the concentration at half-maximal activity (AC50) was 4.82 µM.

Regarding `Cc1ccc(NC(=O)c2nc(S(=O)(=O)Cc3ccccc3C)ncc2Cl)cc1C`, the concentration at half-maximal activity (AC50) is 7.64 µM.

On to `Clc1ccc(CO/N=C/c2c(-c3ccccc3)nc3n2CCS3)c(Cl)c1`, for which the AC50 was 4.62 µM.

On to `CCOC(=O)c1c(C)nc2c(c1-c1ccc(Cl)cc1)C(=O)CC(C)(C)C2`, for which the concentration at half-maximal activity (AC50) is 18.1 µM.

Consider `COc1ccc(C(=O)Nc2ccc(Nc3ccccc3)cc2)cc1[N+](=O)[O-]`, for which the half-maximal activity concentration (AC50) is 4.19 µM.

For the molecule `O=c1cc(-c2ccc(O)cc2)oc2ccc3ccccc3c12`, the AC50 is 7.19 µM.

Turning to `Cc1ccc(-c2nnc(N3CCC(C)CC3)c3ccccc23)cc1C`, the AC50 is 4.3 µM.

On to `COc1cc(CNCCc2c[nH]c3ccccc23)ccc1OCc1ccccc1F`, for which the AC50 is 3.64 µM.

As for `CCCCNc1c(-c2ccc(SC3CCCCC3)c(OC)c2)nc2ccc(C)cn12`, the AC50 was 3.49 µM.

For the molecule `COc1ccc(/C=C2\C(=O)c3ccccc3OC2c2ccccc2)cc1` (stereo not drawn), the concentration at half-maximal activity (AC50) was 1.38 µM.

As to `Cc1cccc(OCCNC(=O)c2cccc(Oc3ccc(C(F)(F)F)cc3[N+](=O)[O-])c2)c1`, the concentration at half-maximal activity (AC50) was 6.38 µM.

Regarding `CC1=C(CO)C(=O)OC([C@@H](C)C2CC[C@H]3C4C[C@H]5O[C@]56[C@@H](O)C=CC(=O)[C@]6(C)C4CC[C@]23C)C1` (stereo partly drawn), the AC50 was 1.62 µM.

On to `Cc1ccc(C(=O)Nc2ncc(Cc3ccccc3)s2)o1`, for which the concentration at half-maximal activity (AC50) is 1 µM.

Consider `Cc1ccc(C(=O)NC(=C(Cl)Cl)S(=O)(=O)c2ccccc2)cc1`, for which the half-maximal activity concentration (AC50) is 3.22 µM.

Consider `Cc1cccc(-c2nc(C#N)c(NC3CCCCC3)o2)c1`, for which the concentration at half-maximal activity (AC50) is 19.4 µM.

As for `COc1ccc(NC(=O)c2ccc(COc3ccccc3Br)o2)cc1OC`, the concentration at half-maximal activity (AC50) is 0.756 µM.

As for `COc1ccc(/C=C/C(=O)c2ccc([N+](=O)[O-])o2)cc1OC`, the concentration at half-maximal activity (AC50) was 2.47 µM.

With `COc1ccc(/C=N/N(Cc2ccccc2)c2ccccc2)cc1O`, the AC50 is 6.77 µM.

As for `C=CCn1c(SCc2c(C)noc2C)nc2ccccc2c1=O`, the concentration at half-maximal activity (AC50) was 1.78 µM.

In the case of `CC(C)(C)C1CCc2c(sc(NC(=O)CSc3ncn[nH]3)c2C#N)C1` (stereo not drawn), the concentration at half-maximal activity (AC50) was 4.79 µM.

Consider `COc1cc(NC(=O)c2csc(N)n2)cc(C(=O)Nc2cccc(C(F)(F)F)c2)c1`, for which the half-maximal activity concentration (AC50) was 5.65 µM.

On to `Cc1ccc(Nc2cc(C)c3ccc(O)cc3n2)cc1C`, for which the half-maximal activity concentration (AC50) was 9.16 µM.

For `COc1ccc(CC2S/C(=N/N=C/c3ccccc3O)NC2=O)cc1` (stereo not drawn), the half-maximal activity concentration (AC50) was 19.2 µM.

As for `COc1ccc(-c2sc3ccc(OC)cc3c2C#Cc2ccccn2)cc1`, the AC50 was 5.88 µM.

Consider `C[C@H](CO)N1C[C@H](C)[C@@H](CN(C)C(=O)Nc2ccc(C(F)(F)F)cc2)Oc2c(NC(=O)Nc3ccc(C(F)(F)F)cc3)cccc2C1=O`, for which the AC50 was 4.26 µM.

Regarding `COc1cc(OC)c2cc(C(=O)N/N=C/c3cccc(OC)c3O)[nH]c2c1`, the AC50 was 6.08 µM.

As to `O=C(O)c1ccc(C=C(c2nc3ccccc3s2)c2nc3ccccc3s2)cc1`, the half-maximal activity concentration (AC50) is 5.12 µM.

As to `COC(=O)c1c(-c2ccc(N(C)C)cc2)sc2ccc(OC)cc12`, the AC50 is > 19.5 µM (inactive).

`CCCCOc1ccc(C(=O)Nc2ccc3c(c2)OCO3)cc1`: the half-maximal activity concentration (AC50) was 3.66 µM.

Consider `Cc1ccc(CNc2nc(-c3cccs3)nc3ccccc23)cc1`, for which the half-maximal activity concentration (AC50) is 8.41 µM.

In the case of `CC(=O)Nc1ccc(NC(=O)CSc2ncc(C(=O)Nc3ccccc3)c(=O)n2C)cc1`, the half-maximal activity concentration (AC50) was 5.44 µM.

As to `O=[N+]([O-])c1ccc(Cl)c(/C=N/n2c(C3CCCCC3)n[nH]c2=S)c1`, the AC50 is > 19.5 µM (inactive).

Consider `CN1CCN(Cc2nc3ccccc3c(=O)n2Cc2nc(-c3ccc4ccccc4c3)cs2)CC1`, for which the concentration at half-maximal activity (AC50) is 3.59 µM.

On to `C=C1/C(=C\C=C2/CCC[C@]3(C)[C@@H]([C@H](C)/C=C/[C@@H](O)C4CC4)CC[C@@H]23)C[C@@H](O)C[C@@H]1O`, for which the concentration at half-maximal activity (AC50) is 6.49 µM.

For the molecule `Cc1ccc(SC[C@H](C)CN2CC[C@H](C(C)(C)C)CCC2=O)cc1`, the concentration at half-maximal activity (AC50) was 6.63 µM.

As for `O=[N+]([O-])/C=C/c1cn(Cc2ccc(Cl)cc2)c2ccccc12`, the concentration at half-maximal activity (AC50) is 2.2 µM.

Turning to `CC(C)(C)[C@@H]1CCC(=O)N(CC[C@H](Sc2ccccc2)c2ccccc2)CC1`, the concentration at half-maximal activity (AC50) is 3.95 µM.

With `COC(=O)c1ccc(CN(c2ccc(C(=O)O)c(O)c2)S(=O)(=O)c2ccc(Cl)c([N+](=O)[O-])c2)cc1`, the half-maximal activity concentration (AC50) was 3.5 µM.

Regarding `c1ccc(N(c2ccccc2)c2nc(N3CCCC3)nc(-n3ccnc3)n2)cc1`, the AC50 is 6.28 µM.

Regarding `CCc1ccc(Nc2nc(N)nc(CSc3nc4ccccc4s3)n2)cc1`, the AC50 was > 19.5 µM (inactive).

As for `CC(C)c1ccc(/C=C/C(=O)NC2=NCCS2)cc1`, the AC50 was > 19.5 µM (inactive).

Take `Cc1cc(C)cc(NC(=O)CCc2nc3sc4c(c3c(=O)[nH]2)CCCC4)c1`: the AC50 was 5.26 µM.

For `COc1ccc(CCN2C(=S)N(C)C(=O)C2CC(=O)Nc2ccc(OC)cc2)cc1` (stereo not drawn), the concentration at half-maximal activity (AC50) is 17.8 µM.

On to `CN(CC(=O)Nc1ccc(Cl)c(Cl)c1)C(=O)C12CC3CC(CC(C3)C1)C2`, for which the concentration at half-maximal activity (AC50) is 6.2 µM.

As for `CCn1c(C(=O)O)c(CC(=O)Nc2cccc(C(F)(F)F)c2)c2ccccc21`, the concentration at half-maximal activity (AC50) was 14.6 µM.

In the case of `CCCc1ccc(-c2cc(NC(=O)CSc3n[nH]c(N)n3)n(-c3ccccc3)n2)cc1`, the AC50 was 6.1 µM.

Regarding `CC(C)N1C(=O)/C(=C\c2nc3ccccc3c(=O)n2-c2ccccc2)c2ccccc21`, the AC50 is 9.85 µM.

Turning to `COc1cc2ccccc2cc1C(=O)Nc1ccccc1Cl`, the AC50 is 7.94 µM.

As to `Cc1sc2nc(SCCN(C)C)n(-c3ccccc3)c(=O)c2c1-c1ccc(F)cc1`, the half-maximal activity concentration (AC50) is 10.2 µM.

For `CCOC(=O)C1CCN(c2ncnc3c2c(-c2ccccc2)cn3-c2ccccc2)CC1`, the AC50 is 7.43 µM.

`Cc1ccn2c(NC3CCCCC3)c(-c3cccc(SC4CCCCC4)c3)nc2c1`: the half-maximal activity concentration (AC50) is 3.86 µM.

Take `CSc1nc2sc3c(c2c(=O)n1CC(C)C)CC(C)(C)OC3`: the half-maximal activity concentration (AC50) was under 0.16 µM.

For `Cc1ccc(N2NC(=O)/C(=C\c3cc4c(cc3[N+](=O)[O-])OCO4)C2=O)cc1C`, the concentration at half-maximal activity (AC50) was 4.44 µM.

On to `COc1cc(/C=N/Nc2nc(Nc3ccccc3)nc(-n3nc(C)cc3C)n2)cc(OC)c1OC`, for which the concentration at half-maximal activity (AC50) is 3.7 µM.

In the case of `Cc1ncc(CN2CCCC(C(=O)Nc3ccc(-c4cccc(F)c4)cc3)C2)s1` (stereo not drawn), the AC50 is 11.7 µM.

On to `O=C(N/C=N/OCc1ccc(Cl)cc1Cl)NOCc1ncc(C(F)(F)F)cc1Cl`, for which the concentration at half-maximal activity (AC50) is 5.04 µM.

Turning to `CCOC(=O)c1c(NC(=O)C(=O)N/N=C/c2ccccc2O)sc2c1CCCCC2`, the AC50 was 2.84 µM.

For `Cc1ccc(C(C)C)c(OCc2ccc(C(=O)N/N=C/c3ccc(O)c(O)c3)cc2)c1`, the concentration at half-maximal activity (AC50) is 4.66 µM.

For `COC(=O)Nc1ccc(S(=O)(=O)N2CCCc3ccccc32)cc1`, the half-maximal activity concentration (AC50) is 2.21 µM.

These data come from PubChem BioAssay AID463074 (Broad Institute, 2010).
